Structures can show the parent of a compound that is named as a salt. Where two headings read alike, the source gives them in different places.
Tests used:
α-adrenergic receptor [1] = assay: Anesthetized dog assay for α-adrenergic blocking agents: inhibition of norepinephrine induced pressor responses; assay type: in vivo; details: relative to prazosin; test drug 3 mg./kg. iv; norepinephrine dose raising blood pressure by 50 mm. of Hg; anesthetized dogs
Method: (§1) In the following table, antihypertensive acitvity was determined by oral administration to spontaneous hypertensive rats, and the in vitro and in vivo α-adrenergic receptor blocking effect was determined by tests described following the table. In the in vitro test, the inhibition by the test drug of norepinephrine induced contractions of rat seminal vesicles was measured; and in the in vivo test, the inhibition by the test drug of norepinephrine induced pressor responses in anesthetized dogs was measured.
Thus, blood pressure responses to norepinephrine (NE) in anesthetized dogs was used as a comparative assay for α-adrenergic receptor blocking properties of drugs.
Experiments were done on mongrel dogs anesthetized with sodium pentobarbital, 30 mg./kg. iv. The left femoral artery was cannulated to record aortic blood pressure and a femoral vein was cannulated for administration of drugs. All animals underwent a bilateral vagotomy. A norepinephrine dose-response curve was obtained by administering increasing doses of iv norepinephrine (0.01 - 1 μg./kg.). The test drug was then administered iv at 3 mg./kg. Approximately 30 minutes later a dose-response curve was again established for iv norepinephrine (0.01-10 μg./kg.).

[2] = tested on: spontaneous hypertensive rats; assay: Antihypertensive activity by oral administration to spontaneous hypertensive rats; assay type: in vivo, rat; details: for change in vivo at 1 mg/kg / change in vivo at 3 mg/kg / change in vivo at 10 mg/kg: Rattus norvegicus, read-out: Antihypertensive Activity % Blood Pressure Change
Method: as §1

α-adrenergic receptor [3] = target: T1, α-adrenergic receptor (Rattus norvegicus, UniProt P43140); assay: Isolated rat seminal vesicle assay: inhibition of norepinephrine induced contractions; assay type: cell-based; details: relative to prazosin; test compound 10 nanograms/ml; shift of norepinephrine ED50, rat seminal vesicle
T1 construct: Seminal vesicles were removed and transfered to a shallow dish containing modified Tyrode's solution; from tissue; host or cells: isolated seminal vesicle of male Long Evans rats
T1 sequence (P43140 1-466): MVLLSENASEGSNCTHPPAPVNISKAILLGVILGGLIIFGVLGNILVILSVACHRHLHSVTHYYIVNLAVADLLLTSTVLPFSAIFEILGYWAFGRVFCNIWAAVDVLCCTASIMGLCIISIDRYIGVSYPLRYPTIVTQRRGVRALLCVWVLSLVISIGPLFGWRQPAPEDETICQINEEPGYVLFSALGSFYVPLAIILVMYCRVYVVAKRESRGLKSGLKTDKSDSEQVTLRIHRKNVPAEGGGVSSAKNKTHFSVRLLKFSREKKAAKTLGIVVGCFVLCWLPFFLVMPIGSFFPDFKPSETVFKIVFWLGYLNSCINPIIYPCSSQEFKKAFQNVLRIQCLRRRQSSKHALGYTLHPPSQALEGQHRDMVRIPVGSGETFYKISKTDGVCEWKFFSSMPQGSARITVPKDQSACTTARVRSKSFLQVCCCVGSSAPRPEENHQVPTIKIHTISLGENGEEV
Method: as §1
Dangan et al., Int. j. […] Lietch et al., Brit.
Male Long Evans rats weighing approximately 300 g. were sacrificed by a sharp blow on the head. Seminal vesicles were removed and transfered to a shallow dish containing modified Tyrode's solution. The vesicles were emptied of their contents by squeezing them gently with a pair of forceps. Silk thread (4-0) was attached to both ends of the vesicle and it was suspended in a 20 ml. muscle chamber containing modified oxygenated Tyrode's solution (g./liter: NaCl 8, KCl 0.2, CaCl2 0.26, NaHCO3 1, Na2 HPO4 0.575, glucose 0.5 and MgCl2 0.02). The bathing fluid was maintained at 37° C. with a thermostatically controlled isolated organ tissue bath. Contractions were recorded isometrically by means of a force displacement transducer and recordings were made with a Beckman RP Dynograph. Norepinephrine (NE) was added to the muscle chamber in volumes ranging from 0.1 to 0.4 ml. with a 1 ml. syringe attached to a 3 inch 20 gauge needle. NE and test compounds were dissolved in deionized water.
NE dose response curves were obtained alone and in the presence of test compounds. NE was allowed to remain in contact with the strip until a maximal contraction was obtained. The strip was then washed with the perfusion fluid for 15-30 seconds and the preparation was allowed to return to base line before a subsequent dose of NE was given. Increasing amounts of NE were injected into the bath in the same manner until a complete dose response was obtained.
The seminal vesicles used to obtain the control NE dose response were discarded and new preparations were placed in the tissue bath for evaluation of the test compound. The test compound was added directly to the perfusion fluid (10 nanograms/ml.) and the strips were allowed to remain in contact with the bathing media for at least 10 minutes before the NE dose response was determined. Seminal vesicles from the same rat were used for control and for test drug.
ED50 values for NE were obtained by regression analysis as described by Finney, Probit, Analysis, 2d Ed., Cambridge (1964). A minimum of 4 strips and at least 4 doses were employed to calculate the regression lines. The ED50 value is defined as the concentration of NE which produces a contraction equal to 50% of the maximal contraction.

[4] = dose 1 mg/kg, oral, spontaneous hypertensive rats
[5] = dose 3 mg/kg, oral, spontaneous hypertensive rats
[6] = dose 10 mg/kg, oral, spontaneous hypertensive rats
[7] = oral, spontaneous hypertensive rats

Row | Compound | α-Adrenergic Receptor Blocking Effect In Vivo Activity Ratio (α-adrenergic receptor [1]) | change in vivo at 1 mg/kg [2, 4] | change in vivo at 3 mg/kg [2, 5] | change in vivo at 10 mg/kg [2, 6] | α-Adrenergic Receptor Blocking Effect In Vitro Activity Ratio (α-adrenergic receptor [3]) | "plateauing" dose response effect on blood pressure lowering [2, 7] | change in vivo at 1 mg/kg ([2]; po) | change in vivo at 3 mg/kg ([2]; po) | change in vivo at 10 mg/kg ([2]; po)
1 | COc1cc2nc(N3CCN(C(=O)c4cc(C)on4)CC3)nc(N)c2cc1OC.Cl [Example 4, 4-Amino-6,7-dimethoxy-2-[4-(5-methylisoxazole-3-carbonyl)piperazin-1-yl]quinazoline Hydrochloride] | 0.24 | -14% | -18% | -41% |  |  |  |  | 
2 | COc1cc2nc(N3CCN(C(=O)c4cnoc4)CC3)nc(N)c2cc1OC.Cl [Example 3, 4-Amino-6,7-dimethoxy-2-[4-(isoxazole-4-carbonyl)-piperazin-1-yl]quinazoline Hydrochloride] |  | -13% | -23% | -35% | 0.92 |  |  |  | 
3 | COc1cc2nc(N3CCN(C(=O)c4cc(C)no4)CC3)nc(N)c2cc1OC.Cl [Example 6, 4-Amino-6,7-dimethoxy-2-[4-(3-methylisoxazole-5-carbonyl)piperazin-1-yl]quinazoline Hydrochloride] |  | -18% | -21% | -37% | 0.25 |  |  |  | 
4 | COc1cc2nc(N3CCN(C(=O)c4cnsc4)CC3)nc(N)c2cc1OC.Cl [Example 10, 4-Amino-6,7-dimethoxy-2-[4-(isothiazole-4-carbonyl)piperazin-1-yl)quinazoline Hydrochloride] |  | -14% | -23% | -25% |  | maximum blood pressure lowering effect is seen at 3 mg./kg. which could not be increased at higher doses |  |  | 
5 | COc1cc2nc(N3CCN(C(=O)c4ccno4)CC3)nc(N)c2cc1OC [Example 1, 4-Amino-6,7-dimethyoxy-2-[4-(isoxazole-5-carbonyl)-piperazine-1-yl]quinazoline Hydrochloride] | 0.18 | -15% | -26% | -35% | 0.11 |  |  |  | 
6 | COc1cc2nc(N3CCN(C(=O)c4cncs4)CC3)nc(N)c2cc1OC.Cl [Example 14, 4-Amino-6,7-dimethoxy-2-[4-(thiazole-5-carbonyl)piperazin-1-yl]quinazoline Hydrochloride] |  | -12% | -22% | -33% | 0.10 |  |  |  | 
7 | COc1cc2nc(N3CCN(C(=O)c4cocn4)CC3)nc(N)c2cc1OC.Cl [Example 7, 4-Amino-6,7-dimethoxy-2-[4-(oxazole-4-carbonyl)piperazin-1-yl]quinazoline Hydrochloride] | 1.22 | -15% | -29% | -45% | 0.6 |  |  |  | 
8 | COc1cc2nc(N3CCN(C(=O)c4cscn4)CC3)nc(N)c2cc1OC [Example 12] |  | -20% | -24% | -32% | 0.12 |  |  |  | 
9 | COc1cc2nc(N3CCN(C(=O)c4cnc(C)s4)CC3)nc(N)c2cc1OC [Example 15, 4-Amino-6,7-dimethyoxy-2-[4-(2-methylthiazole-5-carbonyl)piperazin-1-yl]quinazoline Hydrochloride] | 0.09 | -20% | -25% | -37% | 0.19 |  |  |  | 
10 | COc1cc2nc(N3CCN(C(=O)c4ccon4)CC3)nc(N)c2cc1OC [Example 2, 4-Amino-6,7-dimethoxy-2-[4-(isoxazole-3-carbonyl)-piperazin-1-yl]quinazoline Hydrochloride] |  | -12% | -26% | -32% |  |  |  |  | 
11 | COc1cc2nc(N3CCN(C(=O)c4coc(C)n4)CC3)nc(N)c2cc1OC.Cl [Example 8, 4-Amino-6,7-dimethoxy-2-[4-(2-methyloxazole-4-carbonyl)piperazin-1-yl]quinazoline Hydrochloride] |  | -13% | -31% | -35% | 0.17 |  |  |  | 
12 | COc1cc2nc(N3CCN(C(=O)c4conc4C)CC3)nc(N)c2cc1OC.Cl [Example 5, 4-Amino-6,7-dimethoxy-2-[4-(3-methylisoxazole-4-carbonyl)piperazin-1-yl]quinazoline Hydrochloride] | 0.18 | -17% | -29% | -33% | 0.30 |  |  |  | 
13 | COc1cc2nc(N3CCN(C(=O)c4ocnc4C)CC3)nc(N)c2cc1OC.Cl [Example 9, 4-Amino-6,7-dimethoxy-2-[4-(4-methyloxazole-5-carbonyl)piperazin-1-yl]quinazoline Hydrochloride] |  | -14% | -26% | -41% | 0.19 |  |  |  | 
14 | COc1cc2nc(N3CCN(C(=O)c4ccco4)CC3)nc(N)c2cc1OC [Prazosin, 2-[4-(2-furoyl)-piperazin-1-yl]-4-amino-6,7-dimethoxyquinazoline, reference compound] |  |  |  |  |  |  | -14% | -29% | -42%
15 | COc1cc2nc(N3CCN(C(=O)c4nccs4)CC3)nc(N)c2cc1OC [Example 11, 4-Amino-6,7-dimethoxy-2-[4-thiazole-2-carbonyl)piperazin-1-yl]quinazoline Hydrochloride] |  | -14% | -27% | -33% |  |  |  |  | 
16 | COc1cc2nc(N3CCN(C(=O)c4scnc4C)CC3)nc(N)c2cc1OC.Cl [Example 16, 4-Amino-6,7-dimethoxy-2-[4-(4-methylthiazole-5-carbonyl)piperazin-1-yl]quinazoline Hydrochloride] |  | -4% | -22% | -28% | 0.35 |  |  |  | 
17 | COc1cc2nc(N3CCN(C(=O)c4csc(C)n4)CC3)nc(N)c2cc1OC [Example 13, 4-Amino-6,7-dimethyoxy-2-[4-(2-methylthiazole-4-carbonyl)piperazin-1-yl]quinazoline Hydrochloride] |  | -19% | -28% | -28% | 0.02 | maximum blood pressure lowering effect is seen at 3 mg./kg. which could not be increased at higher doses |  |  | 
